Data on seven compounds can be found in PMC9899896, “Application of a new approach methodology (NAM)-based strategy for genotoxicity assessment of data-poor compounds” (Frontiers in Toxicology, 2023).

Read-outs that look alike come from different tables or passages of the source.

The viability is the share of living cells, or the viability signal relative to a control. Higher therefore signals better survival.

Series [1] concerns human lymphoblastoid TK6 cells. The series can be described thus: MultiFlow DNA Damage assay (γH2AX, p53, p-H3, polyploidy). The class given is cell-based. The procedure:
Treated cells were gently resuspended and 25 µL/well was mixed thoroughly with the labeling solution. The plate was incubated for 30 min at room temperature shielded from light.
The γH2AX and p53 endpoints were measured based on their median fluorescence intensity (i.e., mean channel fluorescence or MCF) relative to the DMSO solvent control. The p-H3 and polyploidy endpoints were measured based on their frequencies among all events (i.e., all 2n–4n and polyploidy (8n) DNA content). The equations for calculating γH2AX shift, nuclear p53 shift, % polyploidy, and % p-H3 positive events are shown below.
Latex microspheres were used as counting beads to determine nuclear density.
Litron developed Global Evaluation Factors (GEF) to identify a biologically significant increase in select biomarker levels.
A clastogenic or aneugenic call required two successive concentrations that met or exceeded the GEFs in at least 2 of the 4 respective MoA biomarkers. Chemicals that met or exceeded two GEFs in a single non-cytotoxic concentration were designated as “weak” responses. In cases where both clastogen and aneugen biomarkers exceeded the GEF the MoA was considered pan-genotoxic. In cases where less than two biomarkers met the GEFs, the call was non-genotoxic.

In series [2] the test system is human lymphoblastoid TK6 cells.
Series [3] concerns chromosome damage. Set-up: method as in Matsushima et al., 1999; Von Der Hude et al., 2000. The settings on record: ref Matsushima et al., 1999; Von Der Hude et al., 2000; cited from earlier work.
The test system of series [4] is chromosome damage. Details: method as in De Boeck et al., 2005. The note with it: ref De Boeck et al., 2005; cited from earlier work.
Series [5] relates to human lymphoblastoid TK6 cells. Kind of series: In vitro MicroFlow assay (flow cytometry-based micronucleus test). The note with it: for MicroFlow summary classification (MN induction): TK6 cells, 4H exposure, 24-h sampling; for MicroFlow %MN response (text): positive: >2.5 fold-increase in %MN and p < 0.05 vs vehicle. Background: In flow cytometry, cells or beads pass a laser one at a time.

In series [6] the test system is human lymphoblastoid TK6 cells. Kind of series: Viability assessment (propidium iodide fluorescence, flow cytometry). The note with it: TK6 cells, ± S9, quantified at 24 h via propidium iodide.
Series [7] relates to human lymphoblastoid TK6 cells. Kind of series: TGx-DDI transcriptomic biomarker classification (TempO-Seq S1500+) and BMC modeling. The settings on record: for Strength / consistency of TGx-DDI response (text): across concentrations and the three statistical analyses; for TGx-DDI classification: overall call from 2-DC, PCA, NSC-PA, S9 condition as in Figure 1; for TGx-DDI summary classification: TK6 cells, 4H exposure.

Series [8] can be described thus: Viability assessment (propidium iodide fluorescence, flow cytometry). The note with it: human, TK6 lymphoblastoid cells with S9.
In series [9] the test system is human lymphoblastoid TK6 cells. Kind of series: Integrated NAM-based test strategy (TGx-DDI + MicroFlow + MultiFlow; ToxPi integration of BMCs). The note with it: from TGx-DDI, MicroFlow and MultiFlow calls.
A further series relates to %MN. Details: method as in SCCP, 2006. The settings on record: ref SCCP, 2006, cited from earlier work.
A further series has as its system MN. The note with it: known apoptogens; ref Avlasevich et al., 2021; cited from earlier work.
The conditions of series [10]: follow-up assay; ref Avlasevich et al., 2021; cited from earlier work.
Series [11] has as its system HepaRG™ cells. Set-up: method as in Buick et al., 2020. The note with it: ref Buick et al., 2020; cited from earlier work.
For series [12], the system named is HepaRG™ cells. Details: method as in Buick et al., 2020. The note with it: ref Buick et al., 2020; cited from earlier work. The source holds these as a separate data set.
Where [13] appears, read: +S9, TK6 cells, 4H and 24H sampling.
[14] abbreviates: -S9, TK6 cells, 4H and 24H sampling.
[15] abbreviates: fold-increase over solvent control.
[16] abbreviates: +S9 (rat liver S9), 3 h recovery.
[17] abbreviates: GEF-based call, in at least one S9 condition.

`Cc1c2ccccc2c(C)c2c1ccc1ccccc12` [DMBA, 7,12-dimethylbenz[a]anthracene, reference compound]: the “MultiFlow summary classification (call and MoA)” value (from here on “MultiFlow summary classification”) is given as “+ C” in [1] (setting [13]) and “-” in series [1] (setting [14]). In addition, the “MultiFlow biomarkers with responses” value in series [1] (setting [15]) came to 4H & 24H ɣH2AX. Besides, the TGx-DDI summary classification result in [2] is reported as “+”. In addition, the “Chromosome damage in vitro” value in the series with chromosome damage [3] was “induce chromosome damage”. Moreover, in the series on chromosome damage [4], the “Chromosome damage in vivo” value is “induce chromosome damage”. Moreover, the “MicroFlow summary classification (MN induction)” value (shortened to “MicroFlow summary classification”) in series [5] (+S9) and in series [5] (-S9) was “+” in each case. Moreover, in [5], the “MicroFlow %MN response (text)” value is “significant fold-increases in %MN”. The “Effect on cell viability” value in [6] was “caused a decline in viability”. Besides, in [7], the “Strength / consistency of TGx-DDI response (text)” value (“Strength / consistency” below) was “strong TGx-DDI response”. The “TGx-DDI classification” value in series [7] is “DDI”.

Turning to `Nc1ccc(Cl)cc1C(=O)c1ccccc1` [NSACB 1, 2-amino-5-chlorobenzophenone], the “MultiFlow MoA classification” value in series [1] is on record as “non-genotoxic”. The “MultiFlow summary classification” value in series [1] is given as “-”. In [1] (human), the “MultiFlow biomarkers with responses” value was “moderate to robust response increase in one of the aneugenic biomarkers (i.e., 4H p-H3)”. The “MicroFlow summary classification” value in [5] (+S9) and in series [5] (-S9) was “+” each time. Further, the “MicroFlow %MN response (text)” value in series [5] is recorded as “robust fold-increase in %MN with a clear concentration-response relationship”. In series [8], the viability at 24 h turned out to be 43%. Moreover, the TGx-DDI summary classification entry was “+” in series [7] (setting [16]) and “-” in [7] (-S9). The “Strength / consistency” value in [7] (listed as #1) was “weaker DDI responses”; in series [7] (listed as NSACB #1) it was “one DDI call at the highest concentration in the NSC-PA only”. Besides, the “TGx-DDI classification” value in series [7] was “DDI”. Moreover, the Integrated hazard conclusion result in series [9] is “somewhat ambiguous”.

In the case of `COc1ccc(NCCO)cc1N` [NSACB 7, 2-[(3-amino-4-methoxyphenyl)amino]ethanol], the “Strength of MultiFlow biomarker response (text)” value in [1] is “more moderate responses”. In addition, the “MultiFlow summary classification” value in series [1] (setting [13]) and in [1] (setting [14]) was “+ C” throughout. Moreover, the “MultiFlow MoA classification” value in series [1] (setting [17]) was “clastogens”. Besides, the “MultiFlow biomarkers with responses” value in [1] (setting [15]) was 4H p53 and 4H ɣH2AX. The “In vitro micronucleus result (OECD 487)” value in the series on %MN (with S9) is “statistically significant and biologically relevant increase in the frequency of %MN”; in the series on %MN (without S9), “equivocal”. Also, the “MicroFlow summary classification” value in series [5] (+S9) and in [5] (-S9) was “+” in each case. Besides, the “MicroFlow %MN response (text)” value was “robust fold-increase in %MN with a clear concentration-response relationship” in [5] (listed as 7) and “stronger %MN frequency in the +S9 condition at the highest concentration” in series [5] (listed as NSACB #7). Further, the TGx-DDI summary classification entry in series [7] (setting [16]) and in series [7] (-S9) was “+” throughout. The “Strength / consistency” value in series [7] was “strongest responses”. Moreover, the “TGx-DDI classification” value in [7] was “DDI across all concentrations except the lowest”. The Integrated hazard conclusion entry in series [9] is listed as “genotoxic in vitro, causing DNA damage via a clastogenic MoA”.

For the compound `Cc1ccc(NCCO)c([N+](=O)[O-])c1` [NSACB 8, 2-[(4-methyl-2-nitrophenyl)amino]ethanol], the “MultiFlow summary classification” value in [1] (setting [13]) and in series [1] (setting [14]) was “-” throughout. Besides, in [1] (setting [17]), the “MultiFlow MoA classification” value is reported as “non-genotoxic”. Also, the “MicroFlow summary classification” value in series [5] (+S9) is given as “+”; in [5] (-S9) it was “-”. Besides, the entries for the “MicroFlow %MN response (text)” value in [5] (listed as 8) and in series [5] (listed as #8) were “robust fold-increase in %MN with a clear concentration-response relationship” and “only tested positive with S9 conditions”, respectively. Moreover, in [8], the viability at 24 h was 46%. For the same compound, the TGx-DDI summary classification result is on record as “+” in series [7] (setting [16]) and “-” in series [7] (-S9). Besides, the “Strength / consistency” value in [7] (listed as 8) was “weaker DDI responses”; in series [7] (listed as NSACB #8) it was “two DDI calls at the highest concentration by NSC-PA and PCA”. Moreover, in series [7], the “TGx-DDI classification” value is “DDI”. Moreover, the Integrated hazard conclusion entry in [9] is on record as “somewhat ambiguous”.

As for `C[C@H]1CCC/C=C/[C@@H]2C[C@H](O)C[C@H]2[C@H](O)/C=C/C(=O)O1` [brefeldin A], the “MicroFlow MN result” value with MN was “induce MN”. Besides, the MultiFlow classification result in series [10] is on record as “non-genotoxicants”.

With `COc1cc2c(c(OC)c1OC)-c1ccc(OC)c(=O)cc1[C@@H](NC(C)=O)CC2` [colchicine], in the series on HepaRG™ cells [11], the MN result is “positive”. The TGx-DDI classification entry in the series on HepaRG™ cells [12] is “negative (non-DDI)”.

Consider “carbonyl cyanide m-chlorphenyl hydrazone [CCCP]”, for which the “MicroFlow MN result” value with MN is on record as “induce MN”. In series [10], the MultiFlow classification result is recorded as “non-genotoxicants”.
